The target of test [1] is human factor XIa (Homo sapiens (Human), UniProt P03951). The test is described as follows: Measurement of FXIa inhibition. Particulars: factor XIa from Kordia, substrate Boc-Glu(OBzl)-Ala-Arg-AMC, fluorescence. The format is biochemical. How it is done: a.1) Measurement of FXIa Inhibition
The factor XIa inhibition of the substances according to the invention is determined using a biochemical test system which utilizes the reaction of a peptidic factor XIa substrate to determine the enzymatic activity of human factor XIa. Here, factor XIa cleaves from the peptic factor XIa substrate the C-terminal aminomethylcoumarin (AMC), the fluorescence of which is measured. The determinations are carried out in microtitre plates.
1 μl of the diluted substance solutions is placed into each of the wells of white microtitre plates from Greiner (384 wells). […] After 15 min of incubation, the enzyme reaction is started by addition of 20 μl of the factor XIa substrate Boc-Glu(OBzl)-Ala-Arg-AMC dissolved in assay buffer (10 μM in assay buffer) from Bachem, the mixture is incubated at room temperature (22° C.) for 30 min and fluorescence is then measured (excitation: 360 nm, emission: 460 nm). The measured emissions of the test batches with test substance are compared to those of control batches without test substance (only dimethyl sulphoxide instead of test substance in dimethyl sulphoxide), and IC50 values are calculated from the concentration/activity relationships.

The target in test [2] is human plasma kallikrein (Homo sapiens (Human), UniProt P03952). The test is described as follows: Determination of the plasma kallikrein activity. The conditions noted are these: plasma kallikrein from Kordia, substrate H-Pro-Phe-Arg-AMC, fluorescence. The format is biochemical. How it is done:
a.5) Determination of the Plasma Kallikrein Activity
To determine the plasma kallikrein inhibition of the substances according to the invention, a biochemical test system is used which utilizes the reaction of a peptidic plasma kallikrein substrate to determine the enzymatic activity of human plasma kallikrein. Here, plasma kallikrein cleaves from the peptic plasma kallikrein substrate the C-terminal aminomethylcoumarin (AMC), the fluorescence of which is measured. The determinations are carried out in microtitre plates.
1 μl of the diluted substance solutions is placed into each of the wells of white microtitre plates from Greiner (384 wells). 20 μl of assay buffer (50 mM Tris/HCl pH 7.4; 100 mM sodium chloride solution; 5 mM of calcium chloride solution; 0.1% of bovine serum albumin) and 20 μl of plasma kallikrein from Kordia (0.6 nM in assay buffer) are then added successively. After 15 min of incubation, the enzyme reaction is started by addition of 20 μl of the substrate H-Pro-Phe-Arg-AMC dissolved in assay buffer (10 μM in assay buffer) from Bachem, the mixture is incubated at room temperature (22° C.) for 30 min and fluorescence is then measured (excitation: 360 nm, emission: 460 nm). The measured emissions of the test batches with test substance are compared to those of control batches without test substance (only dimethyl sulphoxide instead of test substance in dimethyl sulphoxide), and IC50 values are calculated from the concentration/activity relationships.

Some results are limits rather than exact numbers.

human factor XIa, sequence (P03951 388-625): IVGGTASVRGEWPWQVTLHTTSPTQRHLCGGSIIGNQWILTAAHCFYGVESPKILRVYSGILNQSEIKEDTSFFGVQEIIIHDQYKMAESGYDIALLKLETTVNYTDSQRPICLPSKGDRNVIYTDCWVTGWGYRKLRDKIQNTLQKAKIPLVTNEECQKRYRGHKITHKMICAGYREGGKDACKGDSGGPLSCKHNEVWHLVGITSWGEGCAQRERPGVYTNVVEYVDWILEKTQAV
human factor XIa, sequence (P03951 19-387 partner): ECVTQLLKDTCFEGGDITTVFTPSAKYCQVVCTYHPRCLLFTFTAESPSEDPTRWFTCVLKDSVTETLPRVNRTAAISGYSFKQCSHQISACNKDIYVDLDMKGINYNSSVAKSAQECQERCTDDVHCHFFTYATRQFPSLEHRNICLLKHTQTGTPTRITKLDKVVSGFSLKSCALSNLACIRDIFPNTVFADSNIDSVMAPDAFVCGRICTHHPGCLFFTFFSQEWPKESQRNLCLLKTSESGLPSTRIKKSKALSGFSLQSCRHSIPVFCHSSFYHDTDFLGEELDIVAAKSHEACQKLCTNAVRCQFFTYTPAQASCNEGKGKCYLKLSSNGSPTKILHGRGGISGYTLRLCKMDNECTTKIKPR
human plasma kallikrein, sequence (P03952 391-638): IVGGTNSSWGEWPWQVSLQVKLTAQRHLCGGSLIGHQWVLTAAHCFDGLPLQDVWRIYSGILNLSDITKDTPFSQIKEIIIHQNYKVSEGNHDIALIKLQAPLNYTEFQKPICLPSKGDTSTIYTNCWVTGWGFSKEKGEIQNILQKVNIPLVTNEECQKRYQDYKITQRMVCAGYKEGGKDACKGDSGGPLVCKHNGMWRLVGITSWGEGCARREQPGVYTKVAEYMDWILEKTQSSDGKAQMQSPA
human plasma kallikrein, sequence (P03952 20-390 partner): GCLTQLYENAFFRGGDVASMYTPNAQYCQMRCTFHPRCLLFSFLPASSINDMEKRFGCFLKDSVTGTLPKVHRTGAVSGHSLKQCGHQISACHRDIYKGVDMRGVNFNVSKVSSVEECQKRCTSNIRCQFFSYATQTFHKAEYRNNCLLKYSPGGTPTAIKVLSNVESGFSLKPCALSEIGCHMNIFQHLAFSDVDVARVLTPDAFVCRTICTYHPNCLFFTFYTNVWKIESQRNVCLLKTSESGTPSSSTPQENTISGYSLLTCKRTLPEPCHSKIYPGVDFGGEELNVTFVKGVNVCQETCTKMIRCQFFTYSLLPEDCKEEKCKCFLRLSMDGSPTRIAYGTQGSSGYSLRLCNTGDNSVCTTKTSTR

`COCCC(C(=O)Nc1ccc2c(=O)n(C)[nH]c2c1)n1cc2c(cc1=O)-c1cc(Cl)ccc1CC1(CC1)NC2=O` (stereo not drawn) [Example 19, 2-(11′-Chloro-2′,5′-dioxo-2′,5′,6′,8′-tetrahydro-3′H-spiro[cyclopropane-1,7′-pyrido[3,4-e][3]benzazocine]-3′-yl)-4-methoxy-N-(2-methyl-3-oxo-2,3-dihydro-1H-indazol-6-yl)butanamide]: the IC50 in test [1] is 8.4 nM; in test [2], 230 nM.
`COCCC(C(=O)Nc1ccc(C(N)=O)c(F)c1)n1cc2c(cc1=O)-c1cc(Cl)ccc1CC1(CC1)NC2=O` (stereo not drawn) [Example 13, 4-{[2-(11′-Chloro-2′,5′-dioxo-2′,5′,6′,8′-tetrahydro-3′H-spiro[cyclopropane-1,7′-pyrido[3,4-e][3]benzazocine]-3′-yl)-4-methoxybutanoyl]amino}-2-fluorobenzamide]: the IC50 in test [1] was 27 nM; in test [2] it was 780 nM.
With `CCC(C(=O)Nc1ccc(C(=O)O)cc1)n1cc2c(cc1=O)-c1cc(Cl)ccc1C1(CC1)NC2=O` (stereo not drawn) [Example 3, 4-{[2-(10′-Chloro-2′,5′-dioxo-5′,6′-dihydrospiro[cyclopropane-1,7′-pyrido[3,4-d][2]benzazepine]-3′(2′H)-yl)butanoyl]amino}benzoic acid], the IC50 in test [1] was 180 nM; in test [2], more than 50000 nM.
As for `COCCC(C(=O)Nc1ccc(C(=O)O)s1)n1cc2c(cc1=O)-c1cc(Cl)ccc1CC1(CC1)NC2=O` (stereo not drawn) [Example 22, 5-{[2-(11′-Chloro-2′,5′-dioxo-2′,5′,6′,8′-tetrahydro-3′H-spiro[cyclopropane-1,7′-pyrido[3,4-e][3]benzazocine]-3′-yl)-4-methoxybutanoyl]amino}thiophene-2-carboxylic acid], the figures for the IC50 in test [1] and in test [2] were 4 nM and 340 nM, respectively.
In the same order, the values of `CCC(C(=O)Nc1ccc(-c2noc(=O)[nH]2)cc1)n1cc2c(cc1=O)-c1cc(Cl)ccc1CC1(CC1)NC2=O` (stereo not drawn) [Example 11, 2-(11′-Chloro-2′,5′-dioxo-2′,5′,6′,8′-tetrahydro-3′H-spiro[cyclopropane-1,7′-pyrido[3,4-e][3]benzazocine]-3′-yl)-N-[4-(5-oxo-4,5-dihydro-1,2,4-oxadiazol-3-yl)phenyl]butanamide] are 16 nM and 1700 nM.
For `COCCC(C(=O)Nc1ccc2nn(C)cc2c1)n1cc2c(cc1=O)-c1cc(Cl)ccc1CC(CF)NC2=O` (stereo not drawn) [Example 31, 2-[11-Chloro-7-(fluoromethyl)-2,5-dioxo-5,6,7,8-tetrahydropyrido[3,4-e][3]benzazocin-3(2H)-yl]-4-methoxy-N-(2-methyl-2H-indazol-5-yl)butanamide] the same measures were 2.8 nM and 42 nM.
In the same order, the values of `COCCC(C(=O)Nc1ccc(C(=O)O)cc1)n1cc2c(cc1=O)-c1cc(Cl)ccc1CC1(CC1)NC2=O` (stereo not drawn) [Example 12, 4-{[2-(11′-Chloro-2′,5′-dioxo-2′,5′,6′,8′-tetrahydro-3′H-spiro[cyclopropane-1,7′-pyrido[3,4-e][3]benzazocine]-3′-yl)-4-methoxybutanoyl]amino}benzoic acid] are 1.9 nM and 390 nM.
Take `O=C(Cn1cc2c(cc1=O)-c1cc(Cl)ccc1CCNC2=O)Nc1ccc(C(=O)O)cc1` [Example 4, 4-{[(11-Chloro-2,5-dioxo-5,6,7,8-tetrahydropyrido[3,4-e][3]benzazocin-3(2H)-yl)acetyl]amino}benzoic acid]: the IC50 in test [1] is 720 nM; in test [2], 18000 nM.
For the compound `Cn1cc2cc(NC(=O)C(Cc3ccccc3)n3cc4c(cc3=O)-c3cc(Cl)ccc3CC3(CC3)NC4=O)ccc2n1` (stereo not drawn) [Example 30, 2-(11′-Chloro-2′,5′-dioxo-2′,5′,6′,8′-tetrahydro-3′H-spiro[cyclopropane-1,7′-pyrido[3,4-e][3]benzazocine]-3′-yl)-N-(2-methyl-2H-indazol-5-yl)-3-phenylpropanamide], the IC50 in test [1] is 4.5 nM; in test [2], 45 nM.
